According to patent publication US20250163016A1, “PYRIDINE DERIVATIVE, PREPARATION METHOD THEREFOR AND USE THEREOF” (CHENGDU EASTON BIOPHARMACEUTICALS CO., LTD., priority 2022, published 2025):

Columns and labels:
LSD1 = molecular target: T1, LSD1 (Homo sapiens, UniProt O60341); experiment: LSD1 activity test (HTRF); format: biochemical; settings: H3(1-21)K4 me1-biotin substrate, read-out: IC50, inhibitory activity on LSD1
T1 construct: purchased Active Motif 31432
Procedure: In this test, a homogeneous time resolved fluorescence (HTRF) technology was utilized, and the inhibitory activity of compounds on LSD1 was detected by adopting a two-step method. The first step was to incubate LSD1, compounds of different concentrations, and a biotin-labeled methylated polypeptide substrate (H3(1-21)K4 me1-biotin) at the room temperature for fixed time.
A corresponding solution with a 1000-fold final concentration was formed by dilution in a 384-well Source plate, and then Echo550 was used for transferring 10 nL to a 384-well reaction plate for being tested.
An inhibition percentage was calculated using a maximum value, a minimum value, and a signal value (maximum value: fluorescence intensity of 5 μL of 2× enzyme solution+5 μL of 2× substrate mixed solution+10 nL of 100% DMSO+10 μL of detection solution; minimum value: fluorescence intensity of 5 μL of 1× reaction solution+5 μL of 2× substrate mixed solution+10 nL of 100% DMSO+10 μL of detection solution; and signal value: fluorescence intensity of 5 μL of 2× enzyme solution+5 μL of 2× substrate mixed solution+10 nL of diluted compound to be tested+10 μL of detection solution), and a calculation formula was as follows: […]
(§1) Using a logarithm of the concentration as an X axis and the percentage inhibition rate as a Y axis, a dose-response curve was fitted using a formula log(inhibitor) vs. response-Variable slope (Four parameters) of analysis software Graphpad Prism 5 to obtain the IC50 value of each compound on the enzyme activity.

Kasumi-1 cells = experiment: Kasumi-1 cell proliferation inhibition test (Celltiter GLO); format: cell-based; settings: Homo sapiens, 168 h, Kasumi-1, 7 days culture
Procedure: (§2) Research had confirmed that LSD1 played a crucial role in the occurrence process of various types of cancers, including small cell lung cancer (SCLC) and acute myeloid leukemia (AML). Therefore, a human acute myeloid leukemia (Kasumi-1) cell line was used to determine the ATP content in cells at different drug concentrations using a Celltiter GLO assay kit, the cell activity was reflected by luminescence intensity, and IC50 values of different compounds on Kasumi-1 cells were calculated using inhibition rates. The inhibitory effects of the compounds in the present application on the proliferation of Kasumi-1 cells were studied to evaluate the anti-tumor efficacy of the tested compounds at the cellular level.
(§3) • Day 1 Cells were seeded into the 384-well cell culture plate and placed in a 37° C. 5% CO2 cell incubator to be cultured overnight. • Day 0 The compound to be tested was prepared into a 10 mM mother liquid using DMSO, starting from 1 M, diluted by 3 folds, with 10 concentration points and double duplicate wells. A diluted compound was added into the 384-well cell culture plate and placed in a 37° C. 5% CO2 cell incubator to be cultured for 7 days. The concentration of the DMSO in a cell culture system was 0.1 vol %. • Day 7 Celltiter GLO was added into the 384-well cell culture plate according to a volume ratio of culture system:Celltiter GLO=1:1, light-shielded oscillation was carried out on a plate oscillator for 3 min, then the cell culture plate was placed at the room temperature for 30 min with light shielded, and the plate was read using a multifunctional microplate reader chemical light emitting module.
An inhibition rate was calculated by utilizing luminescence intensity of the above DMSO group (with DMSO added), test group (with the tested compound or a positive control solution added) and blank group (not treating cells), and a calculation formula was as follows: […]
as §1, with “Prism 8” for “Prism 5”, “on Kasumi-1 proliferation inhibition” for “on the enzyme”

NCI-H1417 cells = experiment: NCI-H1417 cell proliferation inhibition test (Celltiter GLO); format: cell-based; settings: Homo sapiens, 168 h, NCI-H1417, 7 days culture
Procedure: as §2, with “small cell lung cancer (NCI-H1417)” for “acute myeloid leukemia (Kasumi-1)”, “kit, and” for “kit,”, “intensity.” for “intensity, and”, “the NCI-H1417” for “Kasumi-1”
as §3, with “μM,” for “M,”, “0.1%.” for “0.1 vol %.”
An inhibition percentage was calculated by utilizing luminescence intensity of the above DMSO group (with DMSO added), test group (with the tested compound and a positive control solution added) and blank group (not treating cells), a calculation formula being
as §1, with “Prism 8” for “Prism 5”, “on NCI-H1417 proliferation inhibition” for “on the enzyme”

[1] = Pharmacokinetics of oral administration of rats; format: in vivo; settings: male, rat, SD rats, p.o. 5.0 mg/kg, plasma
Procedure: With SD rats as tested animals, blood drug concentrations in plasma at different moments after oral administration of the compounds of the present application by the rats in a clarification kit mode were determined using an LC-MS/MS method. Pharmacokinetic parameters of the compounds of the present application in the rats were obtained, and pharmacokinetic characteristics of the compounds were studied.
• SD rats, male, weight 180-220 g, 3 rats per group. The animals were fed in an animal house after being purchased, an adaptation period was at least 3 days, and they were used for tests after passing quarantine.
According to Table 4, each group of rats was given the corresponding tested drugs or positive drugs by gavage, before administration, and 15 min, 30 min, 1 h, 2 h, 4 h, 6 h, 8 h, and 24 h after administration, a fixed volume of blood was collected through eye sockets and placed in an EDTA-K2 anticoagulant tube, centrifuging was carried out at 8000 rpm for 1 min to separate plasma into a centrifuge tube, and the plasma was frozen in a −20° C. refrigerator.
The plasma at each time point stored at −20° C. was taken out, then acetonitrile was added, after whirling at 1500 revolutions for 2 min, centrifuging was carried out for 15 min (3500 r/min), and a fixed volume of solution supernatant was taken for LC-MS/MS analysis.
Non-compartment model fitting was carried out on pharmacokinetic behaviors of the tested compounds, and DAS3.31 software was adopted to calculate main pharmacokinetic parameters (T1/2, Tmax, Cmax, AUClast, etc.).

Row | IC50 (LSD1) [nM] | IC50 (NCI-H1417 cells) [nM] | AUC(0-t) [1] [ng·h/mL] | Cmax [1] [ng/mL] | Tmax [1] [h] | half-life [1] [h] | Compound | IC50 (Kasumi-1 cells) [nM]
1 | 1.5 | 33.3 | 591 ± 292 | 77.2 ± 32.1 | 4 | 2.94 ± 0.11 | CN1C(=O)Cc2cc(-c3c(C#N)cc(N4CCC(N)CC4)nc3-c3ccc(C#N)c(F)c3)ccc21 [Compound 18, 6-(4-aminopiperid-1-yl)-2-(4-cyano-3-fluorophenyl)-3-(1-methyl-2-oxoindol-5-yl)isonicotinonitrile] | 8.79
2 | 0.79 | 6.51 | 721 ± 125 | 81.4 ± 17 | 4.67 ± 1.15 | 2.84 ± 0.59 | CC(C)(O)Cn1ncc2cc(-c3c(C#N)cc(N4CCCNCC4)nc3-c3ccc(C#N)c(F)c3)c(F)cc21 [Compound 21, 2-(4-cyano-3-fluorophenyl)-6-(1,4-diazaniline-1-yl)-3-(6-fluoro-1-(2-hydroxyl-2-methylpropyl)-1H-indazol-5-yl)isonicotinonitrile] | 1.03
3 | 0.47 | 16.7 | 712 ± 89.3 | 55 ± 7.72 | 6 | 5.31 ± 0.24 | Cn1ncc2cc(-c3c(C#N)cc(N4CCC(N)CC4)nc3-c3ccc(C#N)c(F)c3)ccc21 [Compound 4, 6-(4-aminopiperid-1-yl)-2-(4-cyano-3-fluorophenyl)-3-(1-methyl-1H-indazol-5-yl)isonicotinonitrile] | 3.07
